Biological target: T1, SerE (Corynebacterium glutamicum, UniProt Q8NSR3)
T1 construct: gene Cgl0605
Conditions: L-proline released from Pro-Gly in the cells; acid-ninhydrin assay

T1 sequence (Q8NSR3 1-307): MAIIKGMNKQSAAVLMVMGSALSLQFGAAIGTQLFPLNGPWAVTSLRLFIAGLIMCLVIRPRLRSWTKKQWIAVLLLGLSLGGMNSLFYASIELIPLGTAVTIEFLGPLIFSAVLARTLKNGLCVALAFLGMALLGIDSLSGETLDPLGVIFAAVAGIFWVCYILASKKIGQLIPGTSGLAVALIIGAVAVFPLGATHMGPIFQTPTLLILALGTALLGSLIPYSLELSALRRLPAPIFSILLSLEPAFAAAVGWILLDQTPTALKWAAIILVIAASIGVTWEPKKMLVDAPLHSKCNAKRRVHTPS

Structure (SMILES): O=C(O)[C@@H]1CCCN1 [L-proline]
- amino acid export assay after Pro-Gly dipeptide addition; serE deletion versus o: SerE is indeed as an L-proline exporter

— paper PMC11743413 (Bioresources and Bioprocessing, 2025)
